Columns and labels:
[1] = system: gpASNase3 (guinea pig L-asparaginase type III); assay: NADH-coupled spectrophotometric assay; type: biochemical, Cavia porcellus; conditions: glycine-activated (cleaved) enzyme; Tris pH 7.5, 37 °C
[2] = target: cleaved gpASNase3 protomer (α- and β-subunit), Asp-bound (Cavia porcellus (guinea pig)); assay: crystal structure

| Km [1] [µM] | stoichiometry N [2] | Molecule |
| --- | --- | --- |
| 2240 ± 140 | – | NC(=O)C[C@H](N)C(=O)O [L-Asn] |
| 410 ± 30 | – | N[C@@H](CC(=O)N[C@@H](Cc1ccccc1)C(=O)O)C(=O)O [β-L-Asp-L-Phe] |
| – | 2 | cleaved gpASNase3 protomer (α- and β-subunit), Asp-bound (complex) |

Reference: PMC4004260 (Biochemistry, 2014)
